Test results published in patent publication US5607926A, “Cephalosporin antibiotics” (Microcide Pharmaceuticals, Inc., priority 1995, dated 1997).
In brackets after ≈: the same amount, converted by molar mass. Where two headings read alike, the source gives them in different places.

Legend:
Assay type in all cases: cell-based
[1] = system: S. aureus 76 (Meth^R)(lac^+); experiment: In vitro antibacterial evaluation, MIC by agar dilution, S. aureus 76; conditions: Staphylococcus aureus, read-out: MIC
How it was run: (§1)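 Two-fold dilutions of test compound, 128 μg/mL down to ≤0.25 μg/mL, were set in Mueller-Hinton agar in duplicate and spot-inoculated with about 10^4 cfu of log-phase culture. Plates were incubated 16-20 hours at 35°-36° C, and MIC taken as the lowest concentration inhibiting growth, following NCCLS agar dilution.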

P. aeruginosa ATCC 27853 = experiment: In vitro antibacterial evaluation, MIC by agar dilution, P. aeruginosa ATCC 27853; conditions: Pseudomonas aeruginosa, ATCC27853, read-out: MIC
How it was run: as §1

S. aureus ATCC 25923 = experiment: In vitro antibacterial evaluation, MIC by agar dilution, S. aureus ATCC 25923; conditions: Staphylococcus aureus, ATCC25923
Method: (§2) The compounds of the invention were evaluated against several β-lactamresistant bacteria strains by determining the minimum inhibitory concentration (MIC, μg/ml) of each compound with respect to each strain. The MIC, the lowest concentration of antibiotic which inhibits growth of the test organism, was determined by the agar dilution method.
(§3) To determine the MIC for bacterial isolates, the test compound was incorporated in a series of two-fold dilutions into liquified Mueller-Hinton agar. Upon solidification, a number of different bacterial strains were spot inoculated with a replicating device onto the agar surface. […] The procedures used in these studies have been standardized by the National Committee for Clinical Laboratory Standards (NCCLS), as per the NCCLS publication entitled METHODS FOR DILUTION ANTIMICROBIAL SUSCEPTIBILITY TESTS (1991), which is incorporated herein by reference.
(§4) Aliquots of antimicrobial agents were prepared in phosphate buffered saline (PBS) at pH 7.2. Tween 20 or DMSO was used as a solubilizing vehicle as needed. Standard methods of vortexing, sonicating and gentle heat were used to facilitate solubilizing the test agent. Typically, the concentration of the stock solution was 10× that of the highest drug concentration tested. A 1.28 mg/mL stock solution was used with a subsequent highest working concentration of 128 μg/mL. Serial two-fold dilutions were done through ≤0.25 μg/mL. Each drug level was tested in duplicate. Two-fold drug dilutions were done in sterile 50 mL tubes with a final drug volume of 5 mL. Upon the addition of 45 mL of molten agar, a 10-fold dilution resulted. Two, 25 mL. plates were then poured into 15×150 mm square Petri plates with grids and allowed to harden.
(§5) A control plate with a reference drug, either cefotaxime, vancomycin or imipenem, was used as the positive growth control. Stock concentrations of reference antibiotics were prepared and frozen at -80° C. Upon preparation, the control plates were sealed and stored in the refrigerator for up to 1 week prior to use; however, imipenem control plates had to be prepared just prior to use. All test plates were used within 24 hours of preparation.
(§6) Satisfactory results were obtained where the inoculum contained about 10^4 colony forming units (cfu) ±0.5 logs. Starting with pure cultures of the test isolates on agar plates, a few isolated colonies were transferred to a tube of nutrient broth and allowed to grow 4-6 hours at 35°-36° C. to reach log-phase growth. Dropwise addition of the broth culture to PBS was done to match a 0.5 McFarland turbidity standard equal to 10^8 cfu/mL. This was further diluted ten-fold in PBS to reach a working inoculum concentration of 10^7 cfu/mL. When 1 μL of the working inoculum was applied to the agar surface a concentration of about 10^4 cfu per spot was obtained.
(§7) Disposable sterile 1 μL loops were used to inoculate test plates, with each isolate in a designated grid on the agar plate. An alternate method of inoculation involved the use of a replica plater, a device with 48 steel pins allowing the simultaneous inoculation of multiple isolates. After the spots had dried, the plates were incubated at 35°-36° C. for 16-20 hours. Endpoints were assessed as the minimum inhibitory concentration (MIC) of antimicrobial agent.

S. haemolyticus (Meth^R) = experiment: In vitro antibacterial evaluation, MIC by agar dilution, S. haemolyticus; conditions: Staphylococcus haemolyticus, read-out: MIC
How it was run: as §1

E. faecium ATCC 35667 = experiment: In vitro antibacterial evaluation, MIC by agar dilution, E. faecium ATCC 35667; conditions: Enterococcus faecium, ATCC35667, read-out: MIC
How it was run: as §1

[2] = system: S. epidermidis ATCC 31432; experiment: In vitro antibacterial evaluation, MIC by agar dilution, S. epidermidis ATCC 31432; conditions: Staphylococcus epidermidis, ATCC31432
Method: as §2, §3, §4, §5, §6, §7

[3] = system: S. aureus Col8A (Meth^S)(lac^-); experiment: In vitro antibacterial evaluation, MIC by agar dilution, S. aureus Col8A; conditions: Staphylococcus aureus
How it was run: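 Agar dilution per NCCLS (1991): two-fold dilutions from 128 μg/mL down to ≤0.25 μg/mL in Mueller-Hinton agar, each level in duplicate. Spots of about 10^4 cfu of log-phase culture; 16-20 h at 35°-36° C. MIC in μg/ml is the lowest concentration inhibiting growth.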

E. coli ATCC 25922 = experiment: In vitro antibacterial evaluation, MIC by agar dilution, E. coli ATCC 25922; conditions: Escherichia coli, ATCC25922, read-out: MIC
How it was run: as §1

E. faecalis ATCC 29212 = experiment: In vitro antibacterial evaluation, MIC by agar dilution, E. faecalis ATCC 29212; conditions: Enterococcus faecalis, ATCC29212; E. faecalis ATCC 29212; read-out: MIC
How it was run: as §1

[4] = S. aureus ATCC 25923, read-out: MIC
[5] = S. epidermidis ATCC 31432, read-out: MIC

Row | Structure (SMILES) | MIC [1] [µg/mL] | MIC (P. aeruginosa ATCC 27853) [µg/mL] | MIC (S. aureus ATCC 25923) [µg/mL] | MIC (S. haemolyticus (Meth^R)) [µg/mL] | MIC (E. faecium ATCC 35667) [µg/mL] | MIC [2] [µg/mL] | MIC [3] [µg/mL] | MIC (E. coli ATCC 25922) [µg/mL] | MIC (E. faecalis ATCC 29212) [µg/mL] | MIC (S. aureus ATCC 25923; [4]) [µg/mL] | MIC [2, 5] [µg/mL]
1 | O=C(Cc1ccccc1)N[C@@H]1C(=O)N2C(C(=O)O)=C(Sc3ccccc3-c3cccs3)CS[C@H]12 [Cmpd 37, (7R)-7-[(Phenylacetyl)amino]-3-(2-(2-thienyl)phenylthio)-3-cephem-4-carboxylic acid] | 8 (≈ 15.7 µM) | > 32 | < 0.25 | 16 (≈ 31.5 µM) | 2 (≈ 3.93 µM) | < 0.25 | < 0.25 | > 32 | 2 (≈ 3.93 µM) | – | –
2 | O=C(Cc1ccccc1)N[C@@H]1C(=O)N2C(C(=O)O)=C(Sc3ccccc3CO)CS[C@H]12 [Cmpd 38, (7R)-7-[(Phenylacetyl)amino]-3-(2-hydroxymethylphenylthio)-3-cephem-4-carboxylic acid] | 16 (≈ 35 µM) | > 32 | < 0.25 | 32 (≈ 70.1 µM) | 4 (≈ 8.76 µM) | < 0.25 | < 0.25 | > 32 | 4 (≈ 8.76 µM) | – | –
3 | O=C(Cc1ccccc1)N[C@@H]1C(=O)N2C(C(=O)O)=C(Sc3ccc(Br)cc3Br)CS[C@H]12 [Cmpd 39, (7R)-7-[(Phenylacetyl)amino]-3-(2,4-dibromophenylthio)-3-cephem-4-carboxylic acid] | 4 (≈ 6.85 µM) | > 32 | < 0.25 | 8 (≈ 13.7 µM) | 2 (≈ 3.42 µM) | < 0.25 | < 0.25 | > 32 | 2 (≈ 3.42 µM) | – | –
4 | O=C(Cc1ccccc1)N[C@@H]1C(=O)N2C(C(=O)O)=C(Sc3ccc(C(F)(F)F)cc3)CS[C@H]12 [Cmpd 40, (7R)-7-[(Phenylacetyl)amino]-3-(4-trifluoromethylphenylthio)-3-cephem-4-carboxylic acid] | 16 (≈ 32.4 µM) | > 32 | < 0.25 | 32 (≈ 64.7 µM) | 4 (≈ 8.09 µM) | < 0.25 | < 0.25 | > 32 | 4 (≈ 8.09 µM) | – | –
5 | Nc1nc(/C(=N/O)C(=O)N[C@@H]2C(=O)N3C(C(=O)O)=C(Sc4ccccc4-c4ccccc4)CS[C@H]23)cs1 [Cmpd 42, (7R)-7-[(Z)-2-(aminothiazol-4-yl)-2-(hydroxyimino)acetamido]-3-(2-biphenylthio)-3-cephem-4-carboxylic acid] | 8 (≈ 14.4 µM) | > 32 | – | 16 (≈ 28.9 µM) | 2 (≈ 3.61 µM) | – | 0.5 (≈ 0.903 µM) | 32 (≈ 57.8 µM) | 2 (≈ 3.61 µM) | < 0.25 | < 0.25
6 | COc1ccc(Cc2ccc(-c3ccccc3SC3=C(C(=O)O)N4C(=O)[C@@H](NC(=O)Cc5ccccc5)[C@H]4SC3)s2)cc1 [Cmpd 43, (7R)-7-[(Phenylacetyl)amino]-3-(2-(2-(4-methoxy-phenylmethyl)thien-5-yl)phenylthio)-3-cephem-4-carboxylic acid] | 8 (≈ 12.7 µM) | > 32 | < 0.25 | 16 (≈ 25.4 µM) | 4 (≈ 6.36 µM) | < 0.25 | < 0.25 | > 32 | 4 (≈ 6.36 µM) | – | –
7 | CSc1ccccc1SC1=C(C(=O)O)N2C(=O)[C@@H](NC(=O)Cc3ccccc3)[C@H]2SC1 [Cmpd 44, (7R)-7-[(Phenylacetyl)amino]-3-(2-methylthiophenylthio)-3-cephem-4-carboxylic acid] | 4 to 8 (≈ 8.46 to 16.9 µM) | > 32 | < 0.25 | 8 (≈ 16.9 µM) | 4 (≈ 8.46 µM) | < 0.25 | < 0.25 | > 32 | 4 (≈ 8.46 µM) | – | –
8 | Cn1cc[n+](Cc2ccc(-c3ccccc3SC3=C(C(=O)[O-])N4C(=O)[C@@H](NC(=O)Cc5ccccc5)[C@H]4SC3)s2)c1 [Cmpd 45, (7R)-7-[(Phenylacetyl)amino]-3-(2-(2-(N-methylimidazoliummethyl)thien-5-yl)phenylthio)-3-cephem-4-carboxylic acid] | 16 (≈ 26.5 µM) | > 32 | – | 32 (≈ 53.1 µM) | 4 (≈ 6.64 µM) | – | 0.5 (≈ 0.83 µM) | > 32 | 4 (≈ 6.64 µM) | < 0.25 | < 0.25
9 | CC(C)(C)c1ccccc1SC1=C(C(=O)O)N2C(=O)[C@@H](NC(=O)Cc3ccccc3)[C@H]2SC1 [Cmpd 46, (7R)-7-[(Phenylacetyl)amino]-3-(2-tert-butylphenylthio)-3-cephem-4-carboxylic acid] | 8 (≈ 16.6 µM) | > 32 | < 0.25 | 16 (≈ 33.2 µM) | 2 (≈ 4.14 µM) | < 0.25 | < 0.25 | > 32 | 2 (≈ 4.14 µM) | – | –
10 | CC(C)Oc1ccccc1SC1=C(C(=O)O)N2C(=O)[C@@H](NC(=O)Cc3ccccc3)[C@H]2SC1 [Cmpd 47, (7R)-7-[(Phenylacetyl)amino]-3-(2-iso-propyloxyphenylthio)-3-cephem-4-carboxylic acid] | 8 (≈ 16.5 µM) | > 32 | < 0.25 | 16 (≈ 33 µM) | 2 (≈ 4.13 µM) | < 0.25 | < 0.25 | > 32 | 4 (≈ 8.25 µM) | – | –
11 | Cn1cc[n+](Cc2ccoc2-c2ccccc2SC2=C(C(=O)[O-])N3C(=O)[C@@H](NC(=O)Cc4ccccc4)[C@H]3SC2)c1 [Cmpd 48, (7R)-7-[(Phenylacetyl)amino]-3-(2-(3-(N-methylimidazoliummethyl)furan-2-yl)phenylthio)-3-cephem-4-carboxylic acid] | 16 (≈ 27.3 µM) | > 32 | – | 16 (≈ 27.3 µM) | 4 (≈ 6.82 µM) | – | 0.5 (≈ 0.852 µM) | > 32 | 4 (≈ 6.82 µM) | < 0.25 | < 0.25
